Test results published in US11192907B2, “Aminopeptidase A inhibitors and pharmaceutical compositions comprising the same” (QUANTUM GENOMICS, priority 2018, dated 2021).
pIC50: −log10 of the molar value.

How the values were obtained:
brain APA [1] = conditions: central infusions, cited from earlier work
recombinant mouse APA = biological target: T1, recombinant mouse APA (Mus musculus, UniProt P16406); assay: Measurement of APA activity in vitro (GluβNa hydrolysis, microplate); format: biochemical; conditions: 200 μM Glu-βNa, pH 7.4, 37° C., read-out: In vitro inhibition of aminopeptidase A, IC50 classification
T1 sequence (P16406 1-945): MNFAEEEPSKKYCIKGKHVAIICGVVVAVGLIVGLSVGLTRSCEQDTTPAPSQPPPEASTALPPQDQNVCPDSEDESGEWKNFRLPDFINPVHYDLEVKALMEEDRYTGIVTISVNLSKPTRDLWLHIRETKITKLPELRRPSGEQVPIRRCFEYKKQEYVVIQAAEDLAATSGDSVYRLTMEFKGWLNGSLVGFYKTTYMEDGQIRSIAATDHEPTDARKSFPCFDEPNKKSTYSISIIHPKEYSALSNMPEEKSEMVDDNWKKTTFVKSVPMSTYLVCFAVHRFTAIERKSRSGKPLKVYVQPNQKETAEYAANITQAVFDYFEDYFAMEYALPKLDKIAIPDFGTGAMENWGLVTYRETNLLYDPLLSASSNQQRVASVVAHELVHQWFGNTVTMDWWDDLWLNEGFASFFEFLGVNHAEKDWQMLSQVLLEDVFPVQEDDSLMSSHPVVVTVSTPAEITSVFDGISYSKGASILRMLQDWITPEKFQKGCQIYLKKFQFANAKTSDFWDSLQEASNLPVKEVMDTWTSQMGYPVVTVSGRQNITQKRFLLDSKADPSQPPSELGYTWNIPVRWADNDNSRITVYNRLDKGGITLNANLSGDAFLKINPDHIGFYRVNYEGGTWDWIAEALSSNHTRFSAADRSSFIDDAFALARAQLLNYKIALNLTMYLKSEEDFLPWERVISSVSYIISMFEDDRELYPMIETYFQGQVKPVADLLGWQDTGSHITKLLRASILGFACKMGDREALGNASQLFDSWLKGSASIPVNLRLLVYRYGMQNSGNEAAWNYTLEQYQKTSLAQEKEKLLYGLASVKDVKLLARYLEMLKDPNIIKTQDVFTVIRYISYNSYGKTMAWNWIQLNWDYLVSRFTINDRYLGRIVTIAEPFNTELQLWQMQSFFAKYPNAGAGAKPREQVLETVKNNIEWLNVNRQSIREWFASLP
Excerpt: In vitro, in the presence of calcium ions, APA hydrolyses a synthetic substrate α-L-glutamyl-β-naphthylamide (GluβNa) to glutamate and β-naphthylamine (βNa). A diazotation reaction in acidic medium makes it possible to reveal the β-naphthylamine by formation of a violet-coloured complex: spectrophotometric measurement then makes it possible to know the amount of complex formed and, by reference to a standard curve produced with increasing concentrations of β-naphthylamine, to deduce the enzymatic activity of the sample.
The reaction takes place at pH 7.4 in 50 mM tris-HCl buffer, in the presence of calcium (4 mM CaCl2)); recombinant mouse APA is incubated at 37° C. in the presence of the substrate (200 μM Glu-βNa) and in the presence or absence of various concentrations of the inhibitor to be tested, in a final volume of 100 μL. The reaction is stopped by adding 10 μL of 3N HCl. A standard curve of β-naphthylamine was prepared in parallel by diazotizing increasing concentrations (up to 0.2 mM) of 2-naphthylamine in 0.1 N HCl.
The following are added to each well: 25 μL of sodium nitrite (NaNO2) (mix, wait 5 minutes at room temperature), 50 μL of ammonium sulfamate (mix, wait 5 minutes at room temperature), then add 25 μL of N-(1-naphthyl) ethylenediamine dihydrochloride (mix, wait for stabilization of the violet colour for approximately 30 minutes at 37° C.).
The absorbance is then measured at 540 nm.

brain APA [2] = biological target: T2, brain APA (Mus musculus, UniProt P16406); assay: Measurement of brain APA activity ex vivo after i.v. administration; format: in vivo, mice; conditions: for brain APA activity: 10 min
T2 construct: from tissue; host or cells: mouse brain homogenate
T2 sequence (P16406 1-945): T1 sequence (P16406 1-945)
Experimental: Brain APA activity was determined as described above.
In vivo, in mice (male, 18-20 g Charles River), Examples 22 and 52 were administered i.v. (5 mg/kg and 4 mg/kg respectively, in a volume of 200 μL). For each condition, five mice were used. Mice were sacrified 10, 30, 60, 120 and 180 min after the injection. The brains were immediately removed and homogenized by sonication in 10 vol of ice-cold 50 mM Tris-HCl buffer (pH 7.4). APA enzymatic activity was measured on brain homogenates. For this purpose, aliquots of the tissue homogenate (16 μL) were incubated for 30 min at 37° C. with 200 μM of GluβNA, 4 mM CaCl2, and 1 μM bestatin inhibitor, with or without 5 μM EC33, in a total volume of 100 μL of 50 mM Tris-HCl buffer (pH 7.4). Then the assay was pursued as described above.

[3] = acute oral, 15 to 150 mg/kg, conscious hypertensive DOCA-salt rats and SHR rats; cited from earlier work

| SMILES | pIC50 (recombinant mouse APA) | other results |
| --- | --- | --- |
| N[C@H](CS)CCS(=O)(=O)O [EC33, (S)-3 amino-4-mercapto-butylsulfonic acid] | 5.00 to 6.52 | effect on BP (brain APA [1]; several experimental models of hypertension): lower BP; effect on brain APA activity (brain APA [1]): inhibit brain APA activity |
| NC(CCC(=O)O)P(=O)(O)CCc1ccccc1 (centres unmarked) [Example 22, 4-amino-4-[hydroxy(2-phenylethyl)phosphoryl]butanoic acid] | > 7.52 | brain APA activity maximally decreased by (brain APA [2]; 5 mg/kg i.v., conscious mice, from 10 min until 60 min): 47%; brain APA activity (brain APA [2]; 5 mg/kg i.v., mice): 37.5±3.3 nmol of GluNA hydrolyzed per mg of protein per h; brain APA activity time course (brain APA [2]; 5 mg/kg i.v., mice, after 120 min): return to basal values; ability to cross the blood brain barrier and enter the brain (brain APA [2]; 5 mg/kg i.v., mice, by inhibition of brain APA activity): cross the blood brain barrier (BBB) and to enter the brain |
| NC(CCC(=O)O)P(=O)(O)CCc1ccccc1-c1ccccc1 (centres unmarked) [Example 39, 4-amino-4-[(2-{[1,1′-biphenyl]-2-yl}ethyl)(hydroxy)phosphoryl]butanoic acid] | 6.52 to 7.52 |  |
| NC(CCC(=O)O)P(=O)(O)CCc1cccc(Cl)c1Cl (centres unmarked) [Example 40, 4-amino-4-{[2-(2,3-dichlorophenyl)ethyl](hydroxy)phosphoryl}butanoic acid] | > 7.52 |  |
| COc1c(Cl)cccc1CCP(=O)(O)C(N)CCC(=O)O (centres unmarked) [Example 41, 4-amino-4-{[2-(3-chloro-2-methoxyphenyl)ethyl](hydroxy)phosphoryl}butanoic acid] | 6.52 to 7.52 |  |
| Cn1cc(CCP(=O)(O)C(N)CCC(=O)O)c2ccccc21 (centres unmarked) [Example 42, 3-carboxy-1-{hydroxy[2-(1-methyl-1H-indol-3-yl)ethyl]phosphoryl}propan-1-aminium chloride] | 6.52 to 7.52 |  |
| NC(CCC(=O)O)P(=O)(O)CCc1ccccc1OC1CCCCC1 (centres unmarked) [Example 43, 3-carboxy-1-({2-[2-(cyclohexyloxy)phenyl]ethyl}(hydroxy)phosphoryl) propan-1-aminium chloride] | > 7.52 |  |
| COCCOc1ccccc1CCP(=O)(O)C(N)CCC(=O)O (centres unmarked) [Example 44, 3-carboxy-1-[hydroxy({2-[2-(2-methoxyethoxy)phenyl]ethyl})phosphoryl]propan-1-aminium chloride] | > 7.52 |  |
| COc1cc(F)ccc1CCP(=O)(O)C(N)CCC(=O)O (centres unmarked) [Example 46, 4-amino-4-{[2-(4-fluoro-2-methoxyphenyl)ethyl](hydroxy)phosphoryl}butanoic acid] | > 7.52 |  |
| NC(CCC(=O)O)P(=O)(O)CCn1ncc2ccccc21 (centres unmarked) [Example 47, 4-amino-4-{hydroxy[2-(1H-indazol-1-yl)ethyl]phosphoryl}butanoic acid] | 5.00 to 6.52 |  |
| NC(CCC(=O)O)P(=O)(O)CCc1ccccc1OCc1ccccc1 (centres unmarked) [Example 48, 1-({2-[2-(benzyloxy)phenyl]ethyl}(hydroxy)phosphoryl)-3-carboxy propan-1-aminium chloride] | > 7.52 |  |
| NC(CCCC(=O)O)P(=O)(O)CCc1ccccc1 (centres unmarked) [Example 49, 5-amino-5-[hydroxy(2-phenylethyl)phosphoryl]pentanoic acid] | 5.00 to 6.52 |  |
| N[C@@H](CCC(=O)O)P(=O)(O)CCc1ccccc1 [Example 50, (1R)-3-carboxy-1-[hydroxy(2-phenylethyl)phosphoryl]propan-1-aminium chloride] | > 7.52 |  |
| N[C@H](CCC(=O)O)P(=O)(O)CCc1ccccc1 [Example 51, (1S)-3-carboxy-1-[hydroxy(2-phenylethyl)phosphoryl]propan-1-aminium chloride] | 5.00 to 6.52 |  |
| COc1ccccc1CCP(=O)(O)[C@@H](N)CCC(=O)O.Cl [Example 52, (1R)-3-carboxy-1-{hydroxy[2-(2-methoxyphenyl)ethyl]phosphoryl} propan-1-aminium chloride] | > 7.52 | brain APA activity (brain APA [2]; 4 mg/kg i.v., mice): 12.0±4.0 nmol of GluNA hydrolyzed per mg of protein per h; ability to cross the BBB and enter the brain (brain APA [2]; 4 mg/kg i.v., mice, by inhibition of brain APA activity): cross the BBB and to enter the brain; inhibition at 4 mg/kg (brain APA [2]; mouse, iv, 4 mg/kg i.v., mice, 120 min after the injection, read-out: brain APA activity inhibited by): 35% |
| N[C@@H](CCC(=O)O)P(=O)(O)CCc1ccccc1OC1CCCCC1 [Example 53, (4R)-4-amino-4-({2-[2-(cyclohexyloxy)phenyl]ethyl} (hydroxy)phosphoryl) butanoic acid] | > 7.52 |  |
| COc1ccccc1CP(=O)(O)C(N)CCS(=O)(=O)O (centres unmarked) [Example 60, 3-amino-3-{hydroxy[(2-methoxyphenyl)methyl]phosphoryl}propane-1-sulfonic acid] | 6.52 to 7.52 |  |
| NC(CCS(=O)(=O)O)P(=O)(O)CCc1ccccc1 (centres unmarked) [Example 61, 3-amino-3-[hydroxy(2-phenylethyl)phosphoryl]propane-1-sulfonic acid] | 5.00 to 6.52 |  |
| COc1ccccc1CCP(=O)(O)C(N)CCS(=O)(=O)O (centres unmarked) [Example 62, 3-amino-3-{hydroxy[2-(2-methoxyphenyl)ethyl]phosphoryl}propane-1-sulfonic acid] | 6.52 to 7.52 |  |
| NC(CCS(=O)(=O)O)P(=O)(O)CCCc1ccccc1 (centres unmarked) [Example 63, 3-amino-3-[hydroxy(3-phenylpropyl)phosphoryl]propane-1-sulfonic acid] | 5.00 to 6.52 |  |
| NC(CCS(=O)(=O)O)P(=O)(O)Cc1cccc(-c2ccccc2)c1 (centres unmarked) [Example 64, 3-amino-3-[({[1,1′-biphenyl]-3-yl}methyl)(hydroxy)phosphoryl]propane-1-sulfonic acid] | 5.00 to 6.52 |  |
| NC(CCS(=O)(=O)O)P(=O)(O)Cc1cc(-c2ccccc2)no1 (centres unmarked) [Example 65, 3-amino-3-{hydroxy[(3-phenyl-1,2-oxazol-5-yl)methyl]phosphoryl}propane-1-sulfonic acid] | 5.00 to 6.52 |  |
| NC(CCS(=O)(=O)O)P(=O)(O)Cc1cc(-c2ccccc2)on1 (centres unmarked) [Example 66, 3-amino-3-{hydroxy[(5-phenyl-1,2-oxazol-3-yl)methyl]phosphoryl}propane-1-sulfonic acid] | 5.00 to 6.52 |  |
| NC(CCCS(=O)(=O)O)P(=O)(O)CCc1ccccc1 (centres unmarked) [Example 67, 4-amino-4-[hydroxy(2-phenylethyl)phosphoryl]butane-1-sulfonic acid] | 6.52 to 7.52 |  |
| NC(CCP(=O)(O)O)P(=O)(O)CCc1ccccc1 (centres unmarked) [Example 68, {3-amino-3-[hydroxy(2-phenylethyl)phosphoryl]propyl}phosphonic acid] | 5.00 to 6.52 |  |
| N[C@@H](CCS(=O)(=O)O)CSSC[C@@H](N)CCS(=O)(=O)O [RB150] |  | effect on BP [3]: dose-dependent decrease in BP |
